This is an account of results in BindingDB's records for aid1799744 (Csar, 2012).

SMILES strings stand for the structures.

What is called Ki is a measure of affinity in units of concentration, obtained from inhibition or displacement. Low values mean higher affinity, high ones lower affinity.

Mitogen-activated protein kinase 1, sequence (P28482 whole entry): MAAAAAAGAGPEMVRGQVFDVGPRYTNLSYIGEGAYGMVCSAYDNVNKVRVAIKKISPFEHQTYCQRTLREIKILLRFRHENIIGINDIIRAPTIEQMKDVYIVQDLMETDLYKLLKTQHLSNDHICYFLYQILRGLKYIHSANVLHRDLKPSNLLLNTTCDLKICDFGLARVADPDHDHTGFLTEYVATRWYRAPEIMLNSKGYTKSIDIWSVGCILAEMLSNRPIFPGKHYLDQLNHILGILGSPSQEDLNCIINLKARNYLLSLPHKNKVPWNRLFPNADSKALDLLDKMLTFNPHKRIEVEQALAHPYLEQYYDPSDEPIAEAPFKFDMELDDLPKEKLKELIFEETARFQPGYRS

The test concerns the target Mitogen-activated protein kinase 1 (Homo sapiens, UniProt P28482). The experiment in a line: Assay 1.
`Cc1cccc(Nc2ncc(C)c(-c3c[nH]c(C(=O)N[C@H](CO)c4cccc(Cl)c4)c3)n2)n1` [erk000619]: the affinity corresponds to a Ki of 0.002 µM.
For `CC[C@@H](COC(C)=O)Nc1ncc(C)c(-c2c[nH]c(C(=O)N[C@H](COC(C)=O)c3cccc(Cl)c3)c2)n1` [erk000620], affinity was put at a Ki of 0.229 µM.
`Cc1cnc(NN2CCCCC2)nc1-c1c[nH]c(C(=O)N[C@H](CO)c2cccc(Cl)c2)c1` [erk000621] had a Ki of 0.005 µM.
As for `COC[C@@H]1CCCN1Nc1ncc(C)c(-c2c[nH]c(C(=O)N[C@H](CO)c3cccc(Cl)c3)c2)n1` [erk000622], the affinity corresponds to a Ki of 0.009 µM.
The compound `Cc1cnc(NC2CCNCC2)nc1-c1c[nH]c(C(=O)N[C@H](CO)c2cccc(Cl)c2)c1` [erk000623] came in with a Ki of 0.015 µM.
`Cc1cnc(NN2CCCC2)nc1-c1c[nH]c(C(=O)N[C@H](CO)c2cccc(Cl)c2)c1` [erk000624]: the inhibition constant Ki stood at 0.007 µM.
The compound `Cc1cccc([C@@H](CO)NC(=O)c2cc(-c3nc(NOCC(F)(F)F)ncc3C)c[nH]2)c1` [erk000625] had a Ki of 0.004 µM. Against the preceding compound, the Ki is about 1.8-fold lower.
As to `Cc1cnc(N)nc1-c1c[nH]c(C(=O)NCc2cccc(F)c2)c1` [erk000626], the inhibition constant (Ki) stood at 1.26 µM.
In turn, `Cc1cnc(N)nc1-c1c[nH]c(C(=O)NCc2c(Cl)cccc2Cl)c1` [erk000627] returned a Ki of 0.324 µM.
In the case of `Cc1cnc(N)nc1-c1c[nH]c(C(=O)NCc2cc(F)cc(F)c2)c1` [erk000629], the affinity, expressed as Ki, was 0.977 µM.
Compound `COc1cccc(CNC(=O)c2cc(-c3nc(N)ncc3C)c[nH]2)c1` [erk000630] registered a Ki of 0.813 µM.
In the case of `Cc1cnc(N[C@H]2CCOC2)nc1-c1c[nH]c(C(=O)N[C@H](CO)c2cccc(Cl)c2)c1` [erk000631], the inhibitory constant (Ki) amounted to 0.209 µM. This Ki is about 3.9-fold lower than that of the compound before.
Compound `O=c1[nH][nH]c2cc(Nc3ncc(Nc4ccccc4)c(Nc4cc(C5CC5)[nH]n4)n3)ccc12` [erk000633] gave an inhibitory constant (Ki) of 0.015 µM.
Consider `CCNc1ncc(C)c(-c2c[nH]c(C(=O)N[C@H](CO)c3cccc(C)c3)c2)n1` [erk000634], for which the Ki was determined as 0.004 µM.
`CCNc1ncc(C)c(-c2c[nH]c(C(=O)N[C@H](CO)c3cccc(Cl)c3)c2)n1` [erk000635] returned a Ki of 0.004 µM.
In turn, `Cc1cnc(Nc2ccccc2)nc1-c1c[nH]c(C(=O)N[C@H](COC(=O)[C@@H](N)C(C)C)c2ccccc2)c1` [erk000637] registered a Ki of 0.38 µM.
The same measure for `Cc1cnc(NCC2CCOCC2)nc1-c1c[nH]c(C(=O)N[C@H](CO)c2ccccc2)c1` [erk000638]: 0.017 µM; for `Cc1cnc(NCC2CCOCC2)nc1-c1c[nH]c(C(=O)N[C@H](CO)c2cccc(Cl)c2)c1` [erk000639]: 0.017 µM; for `Cc1cnc(N[C@H]2CCCOC2)nc1-c1c[nH]c(C(=O)N[C@H](CO)c2cccc(Cl)c2)c1` [erk000640]: 0.028 µM.
Compound `Cc1cnc(NN2CCN(C)CC2)nc1-c1c[nH]c(C(=O)N[C@H](CO)c2cccc(Cl)c2)c1` [erk000641] returned a Ki of 0.02 µM.
The compound `Cc1cccc([C@@H](CO)NC(=O)c2cc(-c3nc(NC4CCCCC4)ncc3C)c[nH]2)c1` [erk000642] came in with a Ki of 0.012 µM.
Consider `Cc1cnc(NC2CCCCC2)nc1-c1c[nH]c(C(=O)N[C@H](CO)c2cccc(Cl)c2)c1` [erk000643], for which the Ki is 0.004 µM. This Ki is about 3-fold lower than that of the compound before.
For the compound `Cc1cnc(NC2CCCC2)nc1-c1c[nH]c(C(=O)N[C@H](CO)c2cccc(Cl)c2)c1` [erk000644], affinity was put at a Ki of 0.002 µM.
`Cc1cnc(Nc2ccccc2)nc1-c1c[nH]c(C(=O)N[C@H](COC(=O)CN)c2ccccc2)c1` [erk000645] had a Ki of 0.055 µM.
Compound `CC(=O)OC[C@@H](NC(=O)c1cc(-c2nc(Nc3ccccc3)ncc2C)c[nH]1)c1ccccc1` [erk000646] gave a Ki of 0.038 µM.
`Cc1cccc([C@@H](CO)NC(=O)c2cc(-c3nc(NCC(F)(F)F)ncc3C)c[nH]2)c1` [erk000647]: the Ki was 0.004 µM.
On to `Cc1cnc(NN(C)C)nc1-c1c[nH]c(C(=O)N[C@H](CO)c2cccc(Cl)c2)c1` [erk000648], for which the Ki came to 0.026 µM.
In turn, `Cc1cnc(NOCc2ccccc2)nc1-c1c[nH]c(C(=O)N[C@H](CO)c2ccccc2)c1` [erk000649] showed a Ki of 0.191 µM.
The same measure for `Cc1csc(Nc2ncc(C)c(-c3c[nH]c(C(=O)N[C@H](CO)c4cccc(Cl)c4)c3)n2)n1` [erk000652]: 0.004 µM; for `Cc1ccc(Nc2ncc(C)c(-c3c[nH]c(C(=O)N[C@H](CO)c4ccccc4)c3)n2)c(C)c1` [erk000653]: 0.003 µM.
In the case of `CCN(CC)c1ccc(Nc2ncc(C)c(-c3c[nH]c(C(=O)N[C@H](CO)c4ccccc4)c3)n2)c(C)c1` [erk000654], the inhibition constant (Ki) is 0.052 µM.
In turn, `Cc1cnc(NO)nc1-c1c[nH]c(C(=O)N[C@H](CO)c2ccccc2)c1` [erk000656] had a Ki of 2.34 µM. This Ki is about 45-fold higher than that of the compound before.
Consider `Cc1cnc(Nc2ccc(Cl)cc2Cl)nc1-c1c[nH]c(C(=O)N[C@H](CO)c2ccccc2)c1` [erk000657], for which the Ki is 0.008 µM.
Regarding `Cc1cnc(Nc2ccc(F)cc2F)nc1-c1c[nH]c(C(=O)N[C@H](CO)c2ccccc2)c1` [erk000658], the inhibition constant (Ki) came out at 0.002 µM.
In turn, `NS(=O)(=O)c1cccc(Nc2nccc(-c3ccc(O)c(C(=O)O)c3)n2)c1` [erk000659] showed an inhibition constant Ki of 0.229 µM.
`Cc1cccc([C@@H](CO)NC(=O)c2cc(-c3nc(N[C@H]4CCOC4)ncc3C)c[nH]2)c1` [erk000660] had a Ki of 0.004 µM.
With `Cc1cnc(NNS(C)(=O)=O)nc1-c1c[nH]c(C(=O)N[C@H](CO)c2cccc(Cl)c2)c1` [erk000661], the inhibition constant Ki was 0.003 µM.
`O=c1[nH][nH]c2cc(Nc3ccc([N+](=O)[O-])c(Nc4cc(C5CC5)[nH]n4)n3)ccc12` [erk000662] gave a Ki of 0.01 µM.
The compound `Cc1ccccc1CNC(=O)c1cc(-c2ccnc(N)n2)c[nH]1` [erk000663] yielded a Ki of 1.29 µM.
`Nc1nccc(-c2c[nH]c(C(=O)NCc3cccc(Cl)c3)c2)n1` [erk000664]: the inhibition constant (Ki) was determined as 0.525 µM.
`Cc1cnc(Nc2ccc3ncsc3c2)nc1-c1c[nH]c(C(=O)N[C@H](CO)c2cccc(Cl)c2)c1` [erk000665] yielded a Ki of 0.071 µM.
`CC[C@@H](COC(C)=O)Nc1ncc(C)c(-c2c[nH]c(C(=O)N[C@H](CO)c3cccc(Cl)c3)c2)n1` [erk000666] yielded a Ki of 0.006 µM. This Ki is about 12-fold lower than that of the compound before.
`Cc1cc(N)ccc1Nc1ncc(C)c(-c2c[nH]c(C(=O)N[C@H](CO)c3cccc(Cl)c3)c2)n1` [erk000668]: the inhibition constant (Ki) worked out at 0.003 µM.
`CCOC(=O)OC[C@H](CC)Nc1ncc(C)c(-c2c[nH]c(C(=O)N[C@H](CO)c3cccc(Cl)c3)c2)n1` [erk000669] registered an inhibition constant (Ki) of 0.027 µM.
For `O=C(N[C@H](CO)c1cccc(Cl)c1)c1cc(-c2ncnc(Nc3ccccc3)n2)c[nH]1` [erk000671], affinity was put at a Ki of 0.002 µM.
`CC(C)Nc1cc(-c2c[nH]c(C(=O)N[C@H](CO)c3cccc(Cl)c3)c2)ncn1` [erk000672] gave a Ki of 0.03 µM. Compared with the last compound, the Ki is about 15-fold higher.
`CC[C@@H](CO)Nc1cc(-c2c[nH]c(C(=O)N[C@H](CO)c3cccc(Cl)c3)c2)ncn1` [erk000673] came in with a Ki of 0.018 µM.
For the compound `Cc1cnc(N[C@@H](CO)CC(F)(F)F)nc1-c1c[nH]c(C(=O)N[C@H](CO)c2cccc(Cl)c2)c1` [erk000675], the affinity corresponds to a Ki of 0.008 µM.
The same measure for `CCOP(=O)(OCC)OC[C@H](CC)Nc1ncc(C)c(-c2c[nH]c(C(=O)N[C@H](COP(=O)(OCC)OCC)c3cccc(Cl)c3)c2)n1` [erk000676]: 1.07 µM; for `Cc1cnc(N[C@@H](C)COC(=O)C(C)C)nc1-c1c[nH]c(C(=O)N[C@H](COC(=O)C(C)C)c2cccc(Cl)c2)c1` [erk000677]: 1.32 µM; for `CC[C@@H](CO)Nc1ncc(C)c(-c2cc(C(=O)N[C@H](CO)c3cccc(Cl)c3)n(CC)c2)n1` [erk000678]: 0.004 µM.
For `CCn1cc(-c2nc(N[C@@H](C)CO)ncc2C)cc1C(=O)N[C@H](CO)c1cccc(Cl)c1` [erk000679], the inhibition constant Ki is 0.005 µM.
`CCn1cc(-c2nc(NCC(F)(F)F)ncc2C)cc1C(=O)N[C@H](CO)c1cccc(Cl)c1` [erk000680] gave a Ki of 0.034 µM.
The same measure for `CC(=O)OC[C@H](C)Nc1ncc(C)c(-c2c[nH]c(C(=O)N[C@H](COC(C)=O)c3cccc(Cl)c3)c2)n1` [erk000682]: 0.331 µM; for `CC[C@@H](COC(=O)OC(C)C)Nc1ncc(C)c(-c2c[nH]c(C(=O)N[C@H](CO)c3cccc(Cl)c3)c2)n1` [erk000684]: 0.158 µM; for `CC[C@@H](COC(=O)[C@@H](N)C(C)C)Nc1ncc(C)c(-c2c[nH]c(C(=O)N[C@H](COC(=O)[C@@H](N)C(C)C)c3cccc(Cl)c3)c2)n1` [erk000685]: 0.759 µM.
In the case of `CC[C@@H](COC(=O)C(C)C)Nc1ncc(C)c(-c2c[nH]c(C(=O)N[C@H](CO)c3cccc(Cl)c3)c2)n1` [erk000689], the affinity, expressed as Ki, was 0.015 µM.
The compound `CCOP(=O)(OCC)OC[C@H](CC)Nc1ncc(C)c(-c2c[nH]c(C(=O)N[C@H](CO)c3cccc(Cl)c3)c2)n1` [erk000690] displayed a Ki of 1.1 µM.
Turning to `Cc1cnc(N)nc1-c1c[nH]c(C(=O)N[C@H](CO)c2cccc(Cl)c2)c1` [erk000691], the affinity corresponds to a Ki of 0.015 µM.
The same measure for `Cc1cnc(NCC(F)(F)F)nc1-c1cc(C(=O)N[C@H](CO)c2cccc(Cl)c2)n(C)c1` [erk000692]: 0.006 µM; for `CC[C@@H](CO)Nc1ncc(C)c(-c2c[nH]c(C(=O)N[C@H](COC(=O)OC(C)C)c3cccc(Cl)c3)c2)n1` [erk000693]: 0.037 µM.
The compound `CC[C@@H](CO)Nc1ncc(C)c(-c2cc(C(=O)N[C@H](CO)c3cccc(Cl)c3)n(COC)c2)n1` [erk000694] yielded a Ki of 0.005 µM.
Regarding `CC[C@@H](COC(=O)C(C)C)Nc1ncc(Cl)c(-c2c[nH]c(C(=O)N[C@H](COC(=O)C(C)C)c3ccccc3)c2)n1` [erk000696], the inhibitory constant (Ki) was found to be 0.151 µM.
Compound `CC[C@@H](CO)Nc1ncc(F)c(-c2c[nH]c(C(=O)N[C@H](CO)c3cccc(Cl)c3)c2)n1` [erk000697] had an inhibition constant Ki of 0.003 µM.
Consider `CC[C@@H](COC(=O)COCCOC)Nc1ncc(C)c(-c2c[nH]c(C(=O)N[C@H](CO)c3cccc(Cl)c3)c2)n1` [erk000698], for which the inhibition constant Ki was found to be 0.017 µM.
`CC[C@@H](COC(=O)COCCOCCOC)Nc1ncc(C)c(-c2c[nH]c(C(=O)N[C@H](CO)c3cccc(Cl)c3)c2)n1` [erk000699] yielded an inhibition constant Ki of 0.013 µM.
The compound `Cc1[nH]c(C(=O)N[C@H](CO)c2cccc(Cl)c2)c(C)c1-c1ccnc(Nc2ccc(F)cc2Cl)n1` [erk000700] displayed an inhibition constant (Ki) of 0.009 µM.
`CCONc1ncc(C)c(-c2cc(C(=O)N[C@H](CO)c3cccc(Cl)c3)n(C)c2)n1` [erk000701]: the affinity corresponds to a Ki of 0.013 µM.
